Series [1] is described as follows: Bioavailability of imetelstat sodium in rats via subcutaneous and intravenous routes (plasma LC/MS/MS, noncompartmental PK). The series is classed as in vivo, Sprague-Dawley rats. The protocol:
4 male, Sprague-Dawley rats (approximately 250 g-260 g) were dosed intravenously (IV volume 37.5 μL; 30 mg/kg) and 4 male, Sprague-Dawley rats (approximately 250 g-260 g) were dosed subcutaneously (SC volume 113 μL; 90 mg/kg) with imetelstat sodium. Imetelstat sodium is a 5′ palmitoylated 13-mer thiophosphoramidate oligonucleotide composed of the sequence 5′-TAGGGTTAGACAA-3′. Imetelstat sodium was dissolved in water immediately before dosing.
Blood was collected from each of the rats at time points of 0.083 hours (˜5 minutes), 0.25 hours (15 minutes), 1 hour, 2 hours, 4 hours, 8 hours and at 24 hours. A volume of […] of whole blood was collected, yielding about 700 μL to 1000 μL of plasma. Blood was collected through a secondary catheter in IV dosed rats (different from the one used for IV dosing).
Blood samples were collected in EDTA tubes and centrifuged immediately after collection. Collected plasma samples were transferred to a separate vial. Plasma concentration of imetelstat sodium was analyzed by LC/MS/MS.
The plasma concentrations of imetelstat sodium that were analyzed over a 24 hour period are depicted in FIG. 1. The plasma concentrations of imetelstat sodium were analyzed by a noncompartmental PK analysis. The subcutaneous (s.c.) bioavailability was calculated based on the following equation: F=(AUC(s.c.)/Dose(s.c.))/(AUC(i.v.)/Dose(i.v.))×100%.

Series [2] deals with cancer cell lines and human tumors. Particulars: U.S. Pat. No. 7,494,982, cited from earlier work.
For series [3], the system named is patients with lower risk myelodysplastic syndrome. As to conditions: administered intravenously; cited from earlier work.
Series [4] concerns template region of the RNA component of telomerase. Particulars: background statement; cited from earlier work.
The nature of series [5]: Pre-study compatibility of imetelstat co-formulated with rHuPH20 (appearance, UV assay, water content, pH, RP-HPLC/UV). The series is classed as physicochemical. As to the method: The following formulations were prepared
In series [6] the test system is patients with myelofibrosis. As to conditions: administered intravenously, correlated with reduction of mutation burden and cytogenetic abnormalities; cited from earlier work.

Where only a bound is given, the exact number is not on record here.

`CCCCCCCCCCCCCCCC(=O)NCC(O)COP(=O)([S-])OC[C@H]1O[C@@H](n2cc(C)c(=O)[nH]c2=O)CC1NP(=O)([S-])OC[C@H]1O[C@@H](n2cnc3c(N)ncnc32)CC1NP(=O)([S-])OC[C@H]1O[C@@H](n2cnc3c(=O)[nH]c(N)nc32)CC1NP(=O)([S-])OC[C@H]1O[C@@H](n2cnc3c(=O)[nH]c(N)nc32)CC1NP(=O)([S-])OC[C@H]1O[C@@H](n2cnc3c(=O)[nH]c(N)nc32)CC1NP(=O)([S-])OC[C@H]1O[C@@H](n2cc(C)c(=O)[nH]c2=O)CC1NP(=O)([S-])OC[C@H]1O[C@@H](n2cc(C)c(=O)[nH]c2=O)CC1NP(=O)([S-])OC[C@H]1O[C@@H](n2cnc3c(N)ncnc32)CC1NP(=O)([S-])OC[C@H]1O[C@@H](n2cnc3c(=O)[nH]c(N)nc32)CC1NP(=O)([S-])OC[C@H]1O[C@@H](n2cnc3c(N)ncnc32)CC1NP(=O)([S-])OC[C@H]1O[C@@H](n2ccc(N)nc2=O)CC1NP(=O)([S-])OC[C@H]1O[C@@H](n2cnc3c(N)ncnc32)CC1NP(=O)([S-])OC[C@H]1O[C@@H](n2cnc3c(N)ncnc32)CC1N.[Na+].[Na+].[Na+].[Na+].[Na+].[Na+].[Na+].[Na+].[Na+].[Na+].[Na+].[Na+].[Na+]` (stereo partly drawn) [imetelstat sodium, 5′ palmitoylated 13-mer thiophosphoramidate oligonucleotide composed of the sequence 5′-TAGGGTTAGACAA-3′]: the “calculated subcutaneous bioavailability (F)” value in series [1] (SC 90 mg/kg vs IV 30 mg/kg, F=(AUC(s.c.)/Dose(s.c.))/(AUC(i.v.)/Dose(i.v.))×100%, 24 hour period) is reported as “about 95.8%”. In series [1] (repeated experiment), the “calculated subcutaneous bioavailability (F)” value was “about 81.5%”. In series [2] (background), the telomerase activity inhibition entry is on record as “inhibits telomerase activity”. The “effect on cell proliferation” value in series [2] (multitude of different cancer cell lines and human tumors) is “effective against cell proliferation”. Further, in series [3], the transfusion independence result is reported as “able to achieve durable transfusion independence in certain patients”. The “binding to the template region of the RNA component of telomerase” value in series [4] is “high affinity”. Besides, in series [5] (RRT 0.42), the “Individual Impurities by RP-HPLC/UV: Unlipidated species” value is reported as 0.26% Area. Besides, the “Individual Impurities by RP-HPLC/UV: Pre-Peak” value in series [5] (RRT 0.98) was determined as 0.35% Area. For the same compound, the “Individual Impurities by RP-HPLC/UV: Post-Peak 1” value in series [5] (RRT 1.04) came out at 5.04% Area. In addition, the “Individual Impurities by RP-HPLC/UV: Post-Peak 2” value in series [5] (RRT 1.08) turned out to be 0.53% Area. For the same compound, the “Individual Impurities by RP-HPLC/UV: Post-Peak 3” value in series [5] (RRT 1.12 (Imetelstat Only), 1.09 (co-formulations)) was <0.2% Area. Besides, in series [5] (pre-study), the “Assay by UV” value was determined as 1033 µg/mg; the “Water Content” value was 4.2%; the “pH (1 mL, Plastic)” value came to 8.0. In series [5] (pre-study compatibility), the “Purity by RP-HPLC/UV” value is reported as 93.1% and the “Total Impurities by RP-HPLC/UV” value amounted to 6.9%. The “Appearance of Reconstituted Solution” value in series [5] (pre-study, Imetelstat Only = most current stability data of the drug substance lot) is “Clear solution,”. Also, in series [6], the “overall survival and bone marrow fibrosis” value was “able to achieve improvement in overall survival and bone marrow fibrosis”.

Values taken from patent publication US20220168403A1, “SUBCUTANEOUS TELOMERASE INHIBITOR COMPOSITIONS AND METHODS FOR USING SAME” (Geron Corporation, priority 2020, published 2022).
